Values after ≈ are worked out from the molar mass of the structure shown. Values joined by “and” are separate entries in the source; they are usually repeats but may differ in a detail not shown here. Equal values may be shown once.

From ChEMBL document CHEMBL1240395 (Antimicrob Agents Chemother, 2010) come the findings set out here.

Data set [1] deals with HCT-8. The experiment in a line: Cytotoxicity against human HCT8 cells at 1.96 to 22.7 uM. It is filed as cell-based. As to conditions: hct-8, 22.7 µM; call rule not given here.
For data set [2], the system named is HCT-8. Briefly: Cytotoxicity against human HCT8 cells assessed as effect on cell viability at 25.69 to 37.22 uM. It is filed as cell-based. As to conditions: hct-8, 37.22 µM.
Data set [3] relates to Cryptosporidium parvum. Briefly: Antiparasitic activity against Cryptosporidium parvum infected in human […] cells after 46 hrs by immunofluorescence method. Format: functional, organism-based.
The mark [4] stands for this setting: Cryptosporidium parvum, HCT-8, 46 h, read-out: IC50.

Regarding `CC(=O)Oc1c(C)cccc1C(=O)Nc1ncc(Br)s1`, the Activity entry is on record as “Non-toxic” in data set [1] and “Toxic” in data set [2].
Take `Cc1nc(NC(=O)c2ccccc2O)sc1Br`: the Activity result is on record as “Non-toxic” in data set [1] and “Toxic” in data set [2].
`CC(=O)Oc1ccccc1C(=O)Nc1nnc(C(F)(F)F)s1`: the Activity result in data set [1] is recorded as “Non-toxic”.
Same read-out and setting: for `Cc1ccc(O)c(C(=O)Nc2ncc(Cl)s2)c1` the value was “Non-toxic”.
In general, IC50 refers to the concentration that gives 50% inhibition. Take `O=C(Nc1ncc(Cl)s1)c1ccccc1O`: in data set [3] (htc8), the IC50 is 2.6 µg/mL and 6 µg/mL. Besides, the Activity entry in data set [1] is “Non-toxic”; in data set [2], “Toxic”.
As to `CCOC(=O)Cc1csc(NC(=O)c2ccccc2OC(C)=O)n1`, the figures for the IC50 in data set [3] (setting [4]) and in data set [3] (htc8) were 8.4 µg/mL (≈ 24.1 µM) and “Not Active”, respectively. Also, in data set [1], the Activity entry is listed as “Non-toxic”.
The matching figures for `Cc1cnc(NC(=O)c2ccccc2O)s1`: over 10 µg/mL, “Not Active” and “Non-toxic”.
In the same order, the values of `COc1cccc(C(=O)Nc2ncc(Br)s2)c1OC(C)=O` are 4.6 µg/mL (≈ 12.4 µM), “Not Active” and “Non-toxic”.
`CSc1nnc(NC(=O)c2ccccc2OC(C)=O)s1`: the values for the IC50 in data set [3] (setting [4]) and in data set [3] (htc8) were 6.4 µg/mL (≈ 20.7 µM) and 9.2 µg/mL (≈ 29.7 µM), respectively. Moreover, the figures for the Activity result in data set [1] and in data set [2] were “Non-toxic” and “Toxic”, respectively.
For `CC(=O)Oc1ccccc1C(=O)Nc1ncc(S(C)(=O)=O)s1`, the IC50 in data set [3] (setting [4]) was 5 µg/mL (≈ 14.7 µM); in data set [3] (htc8), “Not Active”. Besides, the Activity result in data set [1] is “Non-toxic”.
The matching figures for `COc1ccccc1C(=O)Nc1ncc([N+](=O)[O-])s1`: 5.5 µg/mL (≈ 19.7 µM), “Not Active” and “Non-toxic”.
In the same order, the values of `CS(=O)(=O)c1cnc(NC(=O)c2ccccc2O)s1` are 6.9 µg/mL (≈ 23.1 µM), “Not Active” and “Non-toxic”.
The matching figures for `CCOC(=O)Cc1nnc(NC(=O)c2ccccc2OC(C)=O)s1`: over 10 µg/mL, “Not Active” and “Non-toxic”.
For `O=C(Nc1ncc(F)s1)c1ccccc1O`, the Activity result is “Non-toxic” in data set [1] and “Toxic” in data set [2].
With `O=C(Nc1ncc(Br)s1)c1ccccc1O`, the Activity result in data set [1] was “Non-toxic”.
With `CC(=O)Oc1ccccc1C(=O)Nc1nc(C)c(Br)s1`, the IC50 in data set [3] (htc8) is 2.1 µg/mL and 4.8 µg/mL. Moreover, in data set [1], the Activity result is reported as “Non-toxic”.
Consider `CC(=O)Oc1ccccc1C(=O)Nc1nncs1`, for which the IC50 was 5 µg/mL (≈ 19 µM) in data set [3] (setting [4]) and “Not Active” in data set [3] (htc8). In addition, the Activity result in data set [1] is “Non-toxic”.
Take `COc1cccc(C(=O)Nc2ncc([N+](=O)[O-])s2)c1O`: the IC50 in data set [3] (htc8) was 0.4 µg/mL and 1 µg/mL. For the same compound, the Activity entry in data set [1] was “Non-toxic”; in data set [2], “Toxic”.
As for `CCCc1cnc(NC(=O)c2ccccc2O)s1`, the IC50 in data set [3] (setting [4]) was 6.7 µg/mL (≈ 25.5 µM); in data set [3] (htc8), “Not Active”. Besides, in data set [1], the Activity entry is given as “Non-toxic”.
Take `Cc1cccc(C(=O)Nc2ncc(Br)s2)c1O`: the figures for the Activity entry in data set [1] and in data set [2] were “Non-toxic” and “Toxic”, respectively.
As to `CC(=O)Oc1ccccc1C(=O)Nc1ncc(Br)s1`, the Activity entry in data set [1] is recorded as “Non-toxic”.
Regarding `Cc1nc(NC(=O)c2ccccc2O)sc1[N+](=O)[O-]`, the IC50 in data set [3] (setting [4]) was found to be 0.6 µg/mL (≈ 2.15 µM); in data set [3] (htc8), 1 µg/mL (≈ 3.58 µM). The Activity result in data set [1] is “Non-toxic”; in data set [2], “Toxic”.
Take `Cc1cccc(C(=O)Nc2nc(-c3ccccc3)c(Br)s2)c1O`: the Activity result in data set [1] is on record as “Non-toxic”; in data set [2], “Toxic”.
As to `CC(=O)Oc1c(C)cccc1C(=O)Nc1ncc([N+](=O)[O-])s1`, the results for the IC50 in data set [3] (setting [4]) and in data set [3] (htc8) were 0.5 µg/mL (≈ 1.56 µM) and 1 µg/mL (≈ 3.11 µM), respectively. Moreover, the Activity result in data set [1] is “Non-toxic”; in data set [2] it was “Toxic”.
In the same order, the values of `O=C(Nc1ncc(-c2ccccc2Cl)s1)c1ccccc1O` are 6.1 µg/mL (≈ 18.4 µM), “Not Active”, “Non-toxic” and “Toxic”.
With `Cc1ccc(C(=O)Nc2ncc(Cl)s2)c(O)c1`, the Activity entry in data set [1] is on record as “Non-toxic”; in data set [2] it was “Toxic”.
The matching figures for `Cc1cccc(C(=O)Nc2nc(C)c(Br)s2)c1O`: “Non-toxic” and “Toxic”.
Take `CC(=O)Oc1ccccc1C(=O)Nc1ncc([N+](=O)[O-])s1` [NITAZOXANIDE]: the Activity result in data set [1] was “Non-toxic”.
As to `CC(=O)Oc1ccc(C)cc1C(=O)Nc1ncc(Cl)s1`, the Activity result was “Non-toxic” in data set [1] and “Toxic” in data set [2].
For the compound `Cc1ccc(C(=O)Nc2ncc(Br)s2)c(O)c1`, the IC50 amounted to 5.2 µg/mL (≈ 16.6 µM) in data set [3] (setting [4]) and 9.3 µg/mL (≈ 29.7 µM) in data set [3] (htc8). Also, the Activity entry in data set [1] is recorded as “Non-toxic”.
For `CC(=O)Oc1ccc(C)cc1C(=O)Nc1ncc(Br)s1`, in data set [3] (htc8), the IC50 is 1.7 µg/mL and 4.4 µg/mL. Also, the Activity entry in data set [1] is listed as “Non-toxic”; in data set [2] it was “Toxic”.
Take `Cc1cccc(C(=O)Nc2ncc(Cl)s2)c1O`: the results for the IC50 in data set [3] (setting [4]) and in data set [3] (htc8) were 2.3 µg/mL (≈ 8.56 µM) and 4.6 µg/mL (≈ 17.1 µM), respectively. The figures for the Activity entry in data set [1] and in data set [2] were “Non-toxic” and “Toxic”, respectively.
For the compound `O=C(Nc1nc(-c2ccccc2)c(Br)s1)c1ccccc1O`, the IC50 in data set [3] (htc8) was 0.4 µg/mL and 1 µg/mL. The results for the Activity result in data set [1] and in data set [2] were “Non-toxic” and “Toxic”, respectively.
Regarding `O=C(Nc1nccs1)c1ccccc1O`, the IC50 in data set [3] (setting [4]) is over 10 µg/mL; in data set [3] (htc8), “Not Active”. The Activity entry in data set [1] is on record as “Non-toxic”.
As for `CC(=O)Oc1cc(C)ccc1C(=O)Nc1ncc(Br)s1`, the Activity entry in data set [1] is reported as “Non-toxic”.
Turning to `O=C(Nc1ncc(C2CCCCC2)s1)c1ccccc1O`, the IC50 is over 10 µg/mL in data set [3] (setting [4]) and “Not Active” in data set [3] (htc8). For the same compound, in data set [1], the Activity result was “Non-toxic”.
